Calls of active or inactive are those of the source. No cut-off for these calls is given here.
Experiments:
[1] = Toxicity in BALB/c mouse xenografted with human MDA-MB-231 cells assessed as morphological changes in spleen at 10 mg/kg, ip qd for 16 days by Hematoxylin-Eosin staining based analysis; type: organism-based; conditions: in vivo, 384 h, time 16 day
MDA-MB-231 [2] = experiment: Induction of apoptosis in human MDA-MB-231 cells assessed as PARP cleavage at 2.5 uM pretreated with proteasome and calpain inhibitor, MG132 for 4 hrs followed by compound addition and measured after 6 hrs by western blot analysis; type: functional, cell-based
HCC1806 = experiment: Antiproliferative activity against human HCC1806 cells assessed as inhibition of cell growth measured after 24 hrs by MTT assay; type: functional, cell-based; conditions: HCC1806, 24 h
MDA-MB-231 [3] = experiment: Induction of apoptosis in human MDA-MB-231 cells transfected with Myc-Nur77 R184A mutant assessed as PARP cleavage at 2 to 5 uM measured after 6 hrs by western blot analysis; type: functional, cell-based; conditions: dose 2-5 µM
MDA-MB-231 [4] = experiment: Induction of apoptosis in human MDA-MB-231 cells transfected with Nur77 siRNA assessed as early apoptotic cells at 1 uM measured after 6 hrs by AnnexinV-FITC/PI staining based flow cytometry (reference value: 1.88%); type: functional
HeLa [5] = experiment: Antiproliferative activity against human HeLa cells transfected with Nur77 siRNA assessed as inhibition of cell growth measured after 24 hrs by MTT assay; type: functional, cell-based
MDA-MB-231 [6] = experiment: Induction of apoptosis in human MDA-MB-231 cells assessed as increase in cleaved caspase-3 expression at 1 uM measured after 6 hrs by confocal microscopy; type: functional, cell-based
[7] = target: T1, Nuclear receptor subfamily 4immunitygroup A member 1 (Homo sapiens, UniProt P22736); experiment: Binding affinity to His-tagged Nur77 ligand binding domain (unknown origin) by surface plasmon resonance assay
HeLa [8] = experiment: Antiproliferative activity against human HeLa cells assessed as inhibition of cell growth measured after 24 hrs by MTT assay; type: functional, cell-based
MDA-MB-231 [9] = experiment: Antitumor activity against human MDA-MB-231 cells xenografted in BALB/c mouse assessed as decrease in Ki67 expression in tumor at 10 mg/kg, ip qd for 16 days by immunohistochemical staining based analysis; type: functional, organism-based; conditions: time 16.0 day
[10] = Selectivity index, ratio of IC50 for cytotoxicity against human MCF-10A cells to IC50 for antiproliferative activity against human T47D cells; type: toxicity, cell-based; conditions: MCF-10A cells versus T47D cells, read-out: Ratio IC50
MDA-MB-231 [11] = experiment: Induction of apoptosis in human MDA-MB-231 cells transfected with ctr siRNA assessed as early apoptotic cells at 1 uM measured after 6 hrs by AnnexinV-FITC/PI staining based flow cytometry (reference value: 1.88%); type: functional
MDA-MB-231 [12] = experiment: Induction of apoptosis in human MDA-MB-231 cells transfected with Myc-Nur77 assessed as PARP cleavage at 1 to 2 uM measured after 6 hrs by western blot analysis; type: functional, cell-based; conditions: dose 1-2 µM
MDA-MB-231 [13] = experiment: Antitumor activity against human MDA-MB-231 cells xenografted in BALB/c mouse assessed as tumor weight at 10 mg/kg, ip qd for 16 days (reference value: 1.17 gms); type: functional; conditions: time 16 day
[14] = Selectivity index, ratio of IC50 for cytotoxicity against human MCF-10A cells to IC50 for antiproliferative activity against human MCF7 cells; type: toxicity, cell-based; conditions: MCF-10A cells versus MCF7 cells, read-out: Ratio IC50
[15] = Toxicity in BALB/c mouse xenografted with human MDA-MB-231 cells assessed as morphological changes in heart at 10 mg/kg, ip qd for 16 days by Hematoxylin-Eosin staining based analysis; type: organism-based; conditions: in vivo, 384 h, time 16 day
[16] = system: Nuclear receptor subfamily 4immunitygroup A member 1 (Homo sapiens), P22736 [UNDEFINED MUTATION]; experiment: Induction of degradation of Myc-tagged Nur77 R184A mutant (unknown origin) transfected in human MDA-MB-231 cells at 2 to 5 uM measured after 6 hrs by western blot analysis; type: cell-based; conditions: dose 2-5 µM
MDA-MB-231 [17] = experiment: Induction of apoptosis in human MDA-MB-231 cells assessed as PARP cleavage at 2.5 uM pretreated with mTOR inhibitor, rapamycin for 4 hrs followed by compound addition and measured after 6 hrs by western blot analysis; type: functional, cell-based
Bel-7402 = experiment: Antiproliferative activity against human Bel-7402 cells assessed as inhibition of cell growth measured after 24 hrs by MTT assay; type: functional, cell-based; conditions: Bel-7402, 24 h
HT-29 = experiment: Antiproliferative activity against human HT-29 cells assessed as inhibition of cell growth measured after 24 hrs by MTT assay; type: functional, cell-based; conditions: HT-29, 24 h
[18] = Cytotoxicity against human MCF-10A cells assessed as inhibition of cell growth measured after 24 hrs by MTT assay; type: toxicity, cell-based
SW-620 = experiment: Antiproliferative activity against human SW620 cells assessed as inhibition of cell growth measured after 24 hrs by MTT assay; type: functional, cell-based; conditions: SW-620, 24 h
BT-549 = experiment: Antiproliferative activity against human BT-549 cells assessed as inhibition of cell growth measured after 24 hrs by MTT assay; type: functional, cell-based; conditions: BT-549, 24 h
MCF7 = experiment: Antiproliferative activity against human MCF7 cells assessed as inhibition of cell growth measured after 24 hrs by MTT assay; type: functional, cell-based; conditions: MCF7, 24 h
MDA-MB-231 [19] = experiment: Induction of apoptosis in human MDA-MB-231 cells assessed as PARP cleavage at 2.5 uM pretreated with protein synthesis inhibitor, cycloheximide for 4 hrs followed by compound addition and measured after 6 hrs by western blot analysis; type: functional, cell-based
[20] = target: T1, Nuclear receptor subfamily 4immunitygroup A member 1; experiment: Modulation of Nur77 in human MDA-MB-231 cells assessed as increase in TP53 phosphorylation at Ser392 residue at 0.31 to 5 uM measured after 6 hrs by western blot analysis; type: cell-based; conditions: dose 0.31-5 µM

T1 sequence (P22736 whole entry, the tested form may be a part): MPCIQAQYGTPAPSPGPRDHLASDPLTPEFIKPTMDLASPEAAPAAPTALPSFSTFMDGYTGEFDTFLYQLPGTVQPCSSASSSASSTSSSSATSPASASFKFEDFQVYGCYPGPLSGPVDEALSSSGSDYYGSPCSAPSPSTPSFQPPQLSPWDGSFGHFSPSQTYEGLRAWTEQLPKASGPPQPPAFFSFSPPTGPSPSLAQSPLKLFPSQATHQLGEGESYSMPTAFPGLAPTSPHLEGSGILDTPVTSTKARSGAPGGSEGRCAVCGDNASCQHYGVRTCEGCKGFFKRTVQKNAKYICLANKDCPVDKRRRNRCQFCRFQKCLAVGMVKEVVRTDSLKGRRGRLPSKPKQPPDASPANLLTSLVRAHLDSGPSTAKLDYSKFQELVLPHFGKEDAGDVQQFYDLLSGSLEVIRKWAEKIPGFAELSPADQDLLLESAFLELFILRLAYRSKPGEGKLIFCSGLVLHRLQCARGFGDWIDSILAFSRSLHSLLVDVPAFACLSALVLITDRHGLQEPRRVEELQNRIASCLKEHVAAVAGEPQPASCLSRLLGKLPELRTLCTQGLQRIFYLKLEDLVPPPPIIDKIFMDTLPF
Chain of Nuclear receptor subfamily 4immunitygroup A member 1 (Homo sapiens), P22736 [UNDEFINED MUTATION] (P22736 whole entry, looked up, stated change not applied): as the sequence (P22736 whole entry, the tested form may be a part) above

CCN(CC)CCCNC(=O)c1cc2cc(Nc3nccc(-c4sc(NC)nc4C)n3)ccc2[nH]1
Activity [1]: Non-Toxic | Activity (MDA-MB-231 [2]): inactive | IC50 (HCC1806): 0.38 µM | Activity (MDA-MB-231 [3]): inactive | Activity (MDA-MB-231 [4]): 2.25% | IC50 (HeLa [5]): 9.15 µM | Activity (MDA-MB-231 [6]): Active | Kd [7]: 0.091 µM | IC50 (HeLa [8]): 1.99 µM | Activity (MDA-MB-231 [9]): Active | selectivity ratio [10]: 45.7 | Activity (MDA-MB-231 [11]): 11.24% | Activity (MDA-MB-231 [12]): Active | Activity (MDA-MB-231 [13]): 0.06 g | selectivity ratio [14]: 66.7 | Activity [15]: Non-Toxic | Activity [16]: inactive | Activity (MDA-MB-231 [17]): Active | IC50 (Bel-7402): 38.3 µM | IC50 (HT-29): 47.2 µM | IC50 at 24 h [18]: 48 µM | IC50 (SW-620): 18.1 µM | IC50 (BT-549): 2.12 µM | IC50 (MCF7): 0.72 µM | Activity (MDA-MB-231 [19]): Active | Activity [20]: inactive
